The values below come from patent US5602100A, “Dermorphin analogs having pharmacological activity” (priority 1988, dated 1997).

As usually defined, the IC50 is the concentration that inhibits the measured activity by half. Low readings indicate inhibition by little substance, high ones a need for much substance. As a reminder, the Ki is the equilibrium dissociation constant of an inhibitor or competing ligand from its target.

In data set [1] the test system is guinea pig ileum (GPI). The data set is classed as cell-based.
The nature of data set [2]: Respiration rate (respiratory depression). It counts as in vivo, rat. As to conditions: dose 30 mg/kg; control 142 ± 5. As to the method:
In addition to the mouse writhing data, respiratory depression was measured in certain treated mice. Respiratory depression is a commonly observed side effect characteristic of centrally-acting opiates. These reulsts are expressed in Table 5.

For data set [3], the system named is PBQ-induced writhing. Briefly: Mouse writhing test (PBQ). It counts as in vivo. The following applies: dose reducing the number of writhes by 50%. How it is done: The mouse writhing test detects both peripherally and centrally mediated analgesic effects. The test procedure is described in Siegmund et al., Proc. Soc. Exp. Biol. Med., 95, p. 729 (1957). In this test, a control group of albino mice was injected intraperitoneally with 0.3 ml/20 g body weight of a 0.02% solution of 2-phenyl-1,4-benzoquinone (PBQ). The writhing and contortional movements of the mice over the following 15 minutes were recorded. A second group of mice was given a dose of a synthetic dermorphin analog according to this invention, then allowed to wait a period of time before being administered the PBQ injection. The average number of writhes was then recorded and compared to the control group. The results of this test are expressed as the dosage of peptide that reduces the number of writhes by 50% at a given time interval (referred to as ED50).

In another data set the test system is mouse vas deferens (MVD). It counts as cell-based.
For the next data set, the target named is T1, δ-opioid receptor (Rattus norvegicus, UniProt P33533).
T1 construct: displacement of the radioligands from the rat brain membrane preparations; from tissue; host or cells: rat brain membrane preparations
Briefly: biochemical. The data set is classed as binding. The following applies: read-out: [3H]HSLET Ki^δ.

In a further data set the target is T2, μ-opioid receptor (Rattus norvegicus, UniProt P33535).
T2 construct: displacement of the radioligands from the rat brain membrane preparations; from tissue; host or cells: rat brain membrane preparations
The data set is described as follows: biochemical. It counts as binding.

Data set [4] has as its system PBQ-induced writhing. The data set is described as follows: Mouse writhing test with prior N-methyllevallorphan (NML). The data set is classed as in vivo. The following applies: 10 mg/kg N-methyllevallorphan before peptide. How it is done:
A variation of the mouse writhing experiment was also conducted to determine peripheral versus central binding preferences of certain peptides of this invention. In this experiment, 10 mg/kg of N-methyllevallorphan (NML), a known peripheral opioid antagonist, was administered to the mice before injection of the synthetic dermorphin peptide.
On the technique in general: An intraperitoneal irritant provokes the stretching counted in writhing tests.

Data set [5] has as its system guinea pig ileum (GPI). The data set is described as follows: Ke values for naloxone as antagonist in the GPI assay. It counts as cell-based. As to conditions: mean of three determinations ± SEM. How it is done:
κ-receptor interactions were determined by measuring Ke values for naloxone as an antagonist in the GPI assay. High Ke values (in the range of 20-30 nM) are associated with κ-receptor interactions. Low Ke values (in the range of 1-2 nM) are associated with μ-receptor interactions. Ke values for naloxone were determined from the ratio of IC50 values obtained in the presence of and in the absence of a fixed naloxone concentration. The IC50 values of the tested compounds were normalized according to published procedure (F. M. Leslie, "Methods Used for the Study of Opioid Receptors", Pharmacological Reviews, 39 (1987)).

The test system of another data set is hot plate stimulus. Briefly: Mouse hot plate test. It counts as in vivo. As to the method: The mouse hot plate test is an assay which only detects centrally-mediated analgesic effects. This test was carried out using the protocol described in G. Woolfe and A. MacDonald, J. Pharmacol. Exp. Ther., 80, p. 300 ([…]).
Since most of the peptides of the invention were not potent centrally, it was impossible to determine an ED50 value. […] A result is considered insignificant if 30% of mice or lower have responded.
A general note: Hot-plate and tail-flick tests time the reaction to a heat stimulus.

Non-standard residues stand in square brackets, D forms with d. Residues, ends and D or L forms follow the SMILES beside them. dNva = CCC[C@@H](N)C(=O)O; Orn = NCCC[C@H](N)C(=O)O

T2 sequence (P33535 whole entry): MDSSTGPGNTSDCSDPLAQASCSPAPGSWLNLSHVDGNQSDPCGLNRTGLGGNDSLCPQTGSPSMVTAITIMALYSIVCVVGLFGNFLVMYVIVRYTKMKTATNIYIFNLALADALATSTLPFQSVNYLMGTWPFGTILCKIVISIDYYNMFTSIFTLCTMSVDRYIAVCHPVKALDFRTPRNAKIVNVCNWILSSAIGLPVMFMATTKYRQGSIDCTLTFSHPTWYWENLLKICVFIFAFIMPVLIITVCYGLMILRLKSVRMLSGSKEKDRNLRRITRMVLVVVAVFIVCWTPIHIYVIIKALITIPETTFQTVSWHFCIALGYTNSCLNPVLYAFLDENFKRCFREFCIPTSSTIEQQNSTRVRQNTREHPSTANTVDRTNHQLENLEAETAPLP
T1 sequence (P33533 whole entry): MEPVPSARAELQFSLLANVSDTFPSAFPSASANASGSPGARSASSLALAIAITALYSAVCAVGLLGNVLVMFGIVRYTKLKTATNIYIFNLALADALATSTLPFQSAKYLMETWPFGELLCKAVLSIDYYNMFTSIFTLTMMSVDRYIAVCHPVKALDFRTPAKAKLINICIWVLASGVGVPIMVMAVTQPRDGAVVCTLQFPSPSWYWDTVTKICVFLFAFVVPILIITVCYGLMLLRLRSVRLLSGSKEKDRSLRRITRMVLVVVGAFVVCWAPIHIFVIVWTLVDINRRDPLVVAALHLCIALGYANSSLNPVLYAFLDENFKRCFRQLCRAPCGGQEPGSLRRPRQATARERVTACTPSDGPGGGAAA

With `CCC[C@@H](NC(=O)[C@@H](N)Cc1ccc(O)cc1)C(=O)N[C@@H](Cc1ccccc1)C(=O)N[C@@H](CCCN)C(N)=O` [BCH-752, H-Tyr-D-Nva-Phe-Orn-NH2] (H-Y[dNva]F[Orn]-NH2), in the data set with guinea pig ileum (GPI) [1], the GPI relative potency came to 2.36 ± 0.33, 104 ± 15 nM corresponded to half-maximal inhibition (IC50) and the “MVD/GPI IC50 ratio” value was found to be 2.61. For the same compound, the Breaths per min. in data set [2] was 122 ± 14 breaths per min. Moreover, the “PBQ (20 min.) ED50” value in the data set on PBQ-induced writhing [3] worked out at 0.2 mg/kg. In the data set on mouse vas deferens (MVD), this compound displayed an IC50 of 271 ± 63 nM and an MVD relative potency of 0.0420 ± 0.0098. Besides, the Ki on δ-opioid receptor is 2200 nM. Further, the “Ki^δ /Ki^μ” value at μ-opioid receptor was determined as 1880. Further, the Ki on μ-opioid receptor (read-out: [3H]DAGO Ki^μ) was determined as 1.17 nM. For the same compound, in the data set on PBQ-induced writhing [4], the “Antagonism of antinociceptive effect by prior NML” value is given as “partially or totally antagonized”. In addition, in the data set with guinea pig ileum (GPI) [5], the “Ke (naloxone)” value was 1.55 ± 0.23 nm. For the same compound, the “Hot plate ED50” value in the data set with hot plate stimulus (mouse, in vivo) was found to be 5.2 mg/kg. Besides, the “ratio of ED50 for PBQ assay over ED50 for the hot plate assay” value with hot plate stimulus (peripheral/central activity ratio) was 26.
